Experimental data from patent US10925848B2, “Amide derivative” (Daiichi Sankyo Company, Limited, priority 2017, dated 2021).

Legend:
[1] = test system: plasma indoxyl sulfate; assay: Effect of reducing plasma indoxyl sulfate concentration in mice; type: in vivo; conditions: oral gavage, plasma 6 hours after L-tryptophan
Method: An effect of a tryptophanase inhibitory compound to reduce plasma indoxyl sulfate concentration in a mouse can be evaluated through the following operation.
After fasting male BALB/c mice overnight, a tryptophanase inhibitory compound dissolved or suspended at a concentration of 0.01 to 10 mg/mL in 0.5% methylcellulose (MC) solution used as a solvent and 0.5% MC solution are orally administered by gavage at a volume of 10 mL/kg respectively to test compound groups and to a solvent control group. 30 minutes after the administration of the test compound or the solvent, L-tryptophan, that is, a substrate of tryptophanase, is orally administered by gavage at a dose of 1 to 3 g/kg. The L-tryptophan is suspended in a 0.5% tragacanth solution. For 12 hours after the administration of the L-tryptophan, blood is collected over time from a tail vein by using a hematocrit tube. The thus obtained blood is centrifuged at 11,000 rpm for 5 minutes to collect plasma, and the indoxyl sulfate concentration in the plasma is measured singly by liquid chromatography (fluorescence detection) or its combination with a mass spectrometer used subsequently. Plasma indoxyl sulfate concentration in the test compound group against the plasma indoxyl sulfate concentration in the solvent control group is calculated as, for example, a ratio of the area under a curve of the indoxyl sulfate concentration, and thus, the efficacy of each compound in vivo can be compared.
The indoxyl sulfate concentrations in plasma obtained by using the compounds of the respective examples shown in Table 14 below were measured by the above-described method to evaluate the plasma indoxyl sulfate suppressing effect.

[2] = test system: Bacteroides; assay: Indole production suppressing effect in viable bacterium; type: cell-based; conditions: 5 mM L-Tryptophan assay medium, anaerobic, indole in culture supernatant, read-out: Bacteroides Indole Production Inhibitory Activity(IC50)
Method: The effect of a tryptophanase inhibitory compound to suppress indole production from a viable bacterium can be evaluated through the following operation.
When E. coli (Eschelicia coli) is used as a strain known to produce indole, the strain is cultured in an LB medium at 37° C. for 12 to 18 hours under anaerobic conditions, and then, suspended in an assay medium (5 mM L-Tryptophan/PBS(+)/25 mM HEPES (pH8)) in such a manner as to obtain O.D. of about 0.3. When bacteroides is used, the strain is cultured in a modified GAM medium at 37° C. for 12 to 18 hours under anaerobic conditions, and then suspended in an assay medium (5 mM L-Tryptophan/PBS(+)/25 mM HEPES (pH8)) in such a manner as to obtain O.D. of about 1.1. The thus obtained viable bacterial suspension prepared to have a final concentration of a compound of 1 μM to 10 mM is dispensed at 200 μL per well into a 96-well plate and cultured at 37° C. for 2 to 4 hours under anaerobic conditions, O.D., an ATP concentration (that can be quantitatively determined by using BacTiter-Glo (Promega Corporation)) and an indole concentration in the culture supernatant (that can be quantitatively determined by utilizing Ehrlich reaction) are measured. The effect of the tryptophanase inhibitory compound to suppress indole production from a viable bacterium can be evaluated depending on the degree of lowering of the indole concentration in the culture supernatant. It can be checked whether or not the effect is derived from a function other than tryptophanase inhibition, such as a bactericidal function or a bacterial growth inhibitory function, depending on lowering of the O.D. or reduction in the ATP concentration or by performing a generally practiced antibacterial activity test (a MIC (minimum growth inhibition concentration) test) using levofloxacin or the like as a positive control.
The activities of inhibiting indole production of the compounds of the respective examples shown in Table 13 were measured by the above-described method using Bacteroides to evaluate the effect of inhibiting indole production.

[3] = target: tryptophanase of Bacteroides tetaiotaomicron (Bacteroides thetaiotaomicron, UniProt Q8A7N2); assay: Tryptophanase enzyme inhibitory activity (LDH-coupled NADH loss); type: biochemical; conditions: 10 mM L-tryptophan, 30 min preincubation at 37° C., absorbance at 340 nm
Sequence of tryptophanase of Bacteroides tetaiotaomicron (Q8A7N2 entry or part of it, change not shown): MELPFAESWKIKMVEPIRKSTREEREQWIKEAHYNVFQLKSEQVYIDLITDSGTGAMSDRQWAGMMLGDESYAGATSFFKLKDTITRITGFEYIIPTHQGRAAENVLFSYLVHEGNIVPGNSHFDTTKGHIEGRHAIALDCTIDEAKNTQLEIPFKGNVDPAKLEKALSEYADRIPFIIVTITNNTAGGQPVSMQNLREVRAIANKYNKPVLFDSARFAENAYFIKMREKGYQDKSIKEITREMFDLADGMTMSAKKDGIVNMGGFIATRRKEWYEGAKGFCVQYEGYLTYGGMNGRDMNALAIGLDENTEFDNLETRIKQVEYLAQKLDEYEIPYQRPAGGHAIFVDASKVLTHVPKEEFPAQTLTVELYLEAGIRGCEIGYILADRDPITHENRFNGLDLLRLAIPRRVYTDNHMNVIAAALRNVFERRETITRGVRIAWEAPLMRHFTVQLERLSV
Method: Tryptophanase inhibitory activity was evaluated by a method using lactate dehydrogenase (LDH). The reaction time-dependent reduction in NADH conjugated with the enzymatic reaction, with LDH, of pyruvic acid produced through the enzymatic reaction of L-tryptophan as a substrate with tryptophanase, was measured with a spectrophotometer (Phillips-R S et al., Biochemistry, 23, 6228-6234 (1984)). Enzyme inhibitory activity obtained without adding a test compound (by adding DMSO alone) in the presence of tryptophanase was used as a control. As the enzyme, tryptophanase of Bacteroides tetaiotaomicron (Genbank accession number: HC914434.1) was used.
A test compound solution was prepared by dissolving each test compound in DMSO at concentrations (from 30 mM to 30 nM at 10-fold common ratio). LDH, NADH and L-tryptophan were dissolved, using distilled water, respectively to concentrations of 80 units/mL, 10 mM and 50 mM. Bacteroides tryptophanase was prepared to 30 mg/mL. A potassium phosphate buffer was used as the buffer.
A reaction solution A was dispensed at 284.8 μL per well into a 96-well plate, and the test compound solution was added at 3.2 μL per well to obtain a final concentration of 1/100 (reaction solution B). The reaction solution B was incubated at 37° C. for 30 minutes, L-tryptophan was added thereto at 32 μL per well to obtain a final concentration of […] (reaction solution C), and the enzyme reaction was performed at 37° C. over 30 minutes with absorbance at 340 nm measured for monitoring the NADH loss. Based on the NADH loss, the tryptophanase inhibitory activity of the compound was evaluated.

Structure (SMILES) | Plasma Indoxyl Sulfate Reduction Effect in Male BALB/c Mouse (Indoxyl sulfate reduction effect in plasma 6 hours after administration of L-tryptophan: ED75-, mg/kg) [1] | IC50 [2] | IC50 [3]
CCOc1cc(N)c(F)cc1C(=O)N[C@](C)(CC)C(=O)O [Compound of Example 23, (−)-N-(4-Amino-2-ethoxy-5-fluorobenzoyl)-D-isovaline] | 1 mg/kg | < 3000 nM | 490 nM
CCOc1cc(N)c(F)cc1C(=O)N[C@@](C)(CC)C(=O)O [Compound of Example 24, (+)-N-(4-Amino-2-ethoxy-5-fluorobenzoyl)-L-isovaline] | 1 mg/kg | < 3000 nM | 130 nM
CCCOc1cc(N)c(Cl)cc1C(=O)N[C@](C)(CC)C(=O)O [Compound of Example 25, (−)-N-(4-Amino-5-chloro-2-propoxybenzoyl)-D-isovaline] | 1 mg/kg | < 3000 nM | 40 nM
CCCOc1cc(N)c(F)cc1C(=O)N[C@](C)(CC)C(=O)O [Compound of Example 27, (−)-N-(4-Amino-5-fluoro-2-propoxybenzoyl)-D-isovaline] | 1 mg/kg | < 3000 nM | 90 nM
